According to patent publication US20080021026A1, “BENZOTHIOPHENE INHIBITORS OF RHO KINASE” (priority 2006, published 2008):
Read-outs that look alike come from different tables or passages of the source.

Experiments:
[1] = molecular target: T1, recombinant N-terminal GST-tagged human Rho kinase 1 (ROCK1, amino acids 1-535) (Homo sapiens, UniProt Q13464); test: In vitro Rho kinase assay (luciferase-based ATP consumption), ROCK1; format: biochemical
T1 construct: ROCK1, amino acids 1-535; purchased Invitrogen Inc. PV-3691
T1 sequence (Q13464 1-535): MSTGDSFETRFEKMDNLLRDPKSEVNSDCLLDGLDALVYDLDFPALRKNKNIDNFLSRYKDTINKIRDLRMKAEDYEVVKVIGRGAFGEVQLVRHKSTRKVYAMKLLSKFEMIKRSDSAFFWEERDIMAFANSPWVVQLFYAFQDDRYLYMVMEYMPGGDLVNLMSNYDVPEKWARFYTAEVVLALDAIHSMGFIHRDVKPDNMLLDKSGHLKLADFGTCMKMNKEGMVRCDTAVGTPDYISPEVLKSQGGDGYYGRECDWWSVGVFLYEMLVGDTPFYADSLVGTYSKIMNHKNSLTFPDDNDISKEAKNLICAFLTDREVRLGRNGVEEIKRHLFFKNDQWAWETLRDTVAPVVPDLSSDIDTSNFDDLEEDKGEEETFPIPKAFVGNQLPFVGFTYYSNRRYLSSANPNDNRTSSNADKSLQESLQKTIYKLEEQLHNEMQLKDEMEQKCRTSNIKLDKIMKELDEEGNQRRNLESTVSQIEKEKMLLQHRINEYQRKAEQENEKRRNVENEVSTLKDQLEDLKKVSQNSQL
Experimental: In Vitro Rho Kinase Assay
Rho kinase biochemical assays described below depend on firefly luciferase-based, indirect measurement of total ATP consumption by the kinase following incubation with substrate and ATP. 25 μl of Rho kinase assay buffer (20 mM Tris-HCL [pH 7.5], 1 mM MgCl2, 0.4 mM CaCl2, 0.15 mM EGTA, 0.1 mg/ml bovine serum albumin) containing 0.82 μg/ml of recombinant N-terminal GST-tagged human Rho kinase 1 (ROCK1, amino acids 1-535, Invitrogen Inc., cat. #PV-3691) or recombinant N-terminal GST-tagged human Rho kinase 2 (ROCK2, amino acids 1-552, Invitrogen Inc., cat #PV3759), 100 μg/ml S6 peptide substrate (related to amino acids 218-249 of the human 40S ribosomal protein S6, and suitable for ROCK1 or ROCK2, e.g. Upstate/Millipore Inc., cat #12-420), and 3 µM ATP are dispensed to wells of a 384 multi-well opaque plate. The plate is centrifuged for 30 seconds at approximately 200×g. 240 nl of test compound in DMSO is dispensed to each well by passive pin transfer. The lag phase of this in vitro kinase reaction permits addition of compounds soon after the reaction initiates. The reaction is allowed to incubate at 30° C. for 2 hours. The assay plates are sealed and maintained in a humidified environment. After 2 hours, 25 μl of easylite protein kinase assay reagent (Perkin-Elmer, Inc.) is dispensed. After an additional 10 minute incubation at room temperature (about 22° C.), luminescence activity is measured on a Molecular Devices Analyst multi-mode plate reader or other suitable plate reader. Kinase inhibition results in less ATP consumption, and therefore increased luminescence signal. Negative control activity is measured with DMSO lacking any test compound. The positive control is 2-methyl-1-(4-methylisoquinolin-5-ylsulfonyl)perhydro-1,4-diazepine hydrochloride (aka H-1152P, HCl salt). Efficacy is measured as a percentage of positive control activity. […] The designation NT means the cited example was not tested.

[2] = molecular target: T2, recombinant N-terminal GST-tagged human Rho kinase 2 (ROCK2, amino acids 1-552) (Homo sapiens, UniProt O75116); test: In vitro Rho kinase assay (luciferase-based ATP consumption), ROCK2; format: biochemical
T2 construct: ROCK2, amino acids 1-552; purchased Invitrogen Inc. PV3759
T2 sequence (O75116 1-552): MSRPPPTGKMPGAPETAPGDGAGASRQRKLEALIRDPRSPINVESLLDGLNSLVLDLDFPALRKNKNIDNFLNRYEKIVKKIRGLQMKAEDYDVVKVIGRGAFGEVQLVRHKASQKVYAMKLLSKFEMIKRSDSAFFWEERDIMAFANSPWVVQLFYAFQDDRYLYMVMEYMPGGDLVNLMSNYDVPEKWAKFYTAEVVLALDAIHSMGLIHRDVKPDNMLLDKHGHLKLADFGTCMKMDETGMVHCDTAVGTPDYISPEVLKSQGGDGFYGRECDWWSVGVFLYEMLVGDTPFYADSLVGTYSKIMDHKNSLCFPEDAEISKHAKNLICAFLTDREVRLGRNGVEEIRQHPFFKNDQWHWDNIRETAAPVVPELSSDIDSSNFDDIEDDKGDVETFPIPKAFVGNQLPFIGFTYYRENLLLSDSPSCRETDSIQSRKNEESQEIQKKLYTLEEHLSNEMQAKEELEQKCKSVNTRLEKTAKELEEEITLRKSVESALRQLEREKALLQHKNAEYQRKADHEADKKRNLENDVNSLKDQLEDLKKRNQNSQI
Outline: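 Luciferase-based luminescence of leftover ATP after 2 h at 30 °C, where inhibition raises signal, reports activity of GST-tagged ROCK2 (aa 1-552) at 0.82 μg/ml. Conditions: S6 peptide 100 μg/ml, […], pH 7.5 Tris buffer. Results given as percent of H-1152P control activity.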

[3] = recombinant GST-tagged human ROCK1, luciferase-based ATP consumption, read-out: ROCK1 IC50
[4] = recombinant GST-tagged human ROCK2, luciferase-based ATP consumption, read-out: ROCK2 IC50

Row | IC50 [1, 3] | IC50 [2, 4] | Compound | IC50 ([1]; ROCK1 IC50, recombinant GST-tagged human ROCK1, luciferase-based ATP consumption) | IC50 ([2]; ROCK2 IC50, recombinant GST-tagged human ROCK2, luciferase-based ATP consumption)
1 | > 5 µM | < 5 µM | Cc1c(-c2ccnc(N)n2)sc2ccc(CNC(=O)C3CCCO3)cc12 (centres unmarked) [Example 106, Cc1c(sc2ccc(CNC(═O)C3CCCO3)cc12)-c4ccnc(N)n4] |  | 
2 | > 5 µM | < 5 µM | Cc1c(-c2ccnc(N)n2)sc2ccc(C(=O)c3ccccc3)cc12 [Example 87, (2-(2-Aminopyrimidin-4-yl)-3-methylbenzo[b]thiophen-5-yl)(phenyl)methanone] |  | 
3 | < 5 µM | < 5 µM | Cc1c(-c2ccnc(N)n2)sc2ccc(Nc3ccccn3)cc12 [Example 64, 4-(3-Methyl-5-(pyridin-2-ylamino)benzo[b]thiophen-2-yl)pyrimidin-2-amine] |  | 
4 | < 5 µM | < 5 µM | Cc1c(-c2ccnc(N)n2)sc2ccc(Nc3cncc(C(=O)O)c3)cc12 [Example 71, 5-(2-(2-Aminopyrimidin-4-yl)-3-methylbenzo[b]thiophen-5-ylamino)nicotinic acid] |  | 
5 | < 5 µM | < 5 µM | Cc1c(-c2ccnc(N)n2)sc2ccc(Nc3cccc(NC(=O)c4ccc(OCCN5CCOCC5)cc4)c3)cc12 [Example 59, N-(3-(2-(2-Aminopyrimidin-4-yl)-3-methylbenzo[b]thiophen-5-ylamino)phenyl)-4-(2-morpholinoethoxy)benzamide] |  | 
6 | > 5 µM | < 5 µM | Cc1c(-c2ccnc(N)n2)sc2ccc(CNC(=O)c3ccc(Oc4cccc(O)c4)cc3)cc12 [Example 306, Cc1c(sc2ccc(CNC(═O)c3ccc(Oc4cccc(O)c4)cc3)cc12)-c5ccnc(N)n5] |  | 
7 | > 5 µM | < 5 µM | Cc1c(-c2ccnc(N)n2)sc2ccc(CNC(=O)c3ccc(Cl)nc3)cc12 [Example 148, Cc1c(sc2ccc(CNC(═O)c3ccc(Cl)nc3)cc12)-c4ccnc(N)n4] |  | 
8 | > 5 µM | < 5 µM | Cc1c(-c2ccnc(N)n2)sc2ccc(CNC(=O)CC3Cc4ccccc4C3)cc12 [Example 198, Cc1c(sc2ccc(CNC(═O)CC3Cc4ccccc4C3)cc12)-c5ccnc(N)n5] |  | 
9 | < 5 µM | < 5 µM | Cc1c(-c2ccnc(N)n2)sc2ccc(CNC(=O)Cc3ccc(O)c(Cl)c3)cc12 [Example 234, Cc1c(sc2ccc(CNC(═O)Cc3ccc(O)c(Cl)c3)cc12)-c4ccnc(N)n4] |  | 
10 | < 5 µM | < 5 µM | Cc1c(-c2ccnc(N)n2)sc2ccc(C(=O)Nc3ccc(OCCN4CCOCC4)cc3)cc12 [Example 21, 2-(2-Aminopyrimidin-4-yl)-3-methyl-N-(4-(2-morpholinoethoxy)phenyl)benzo[b]thiophene-5-carboxamide] |  | 
11 | < 5 µM | < 5 µM | Cc1c(-c2ccnc(N)n2)sc2ccc(CNC(=O)c3cccc([N+](=O)[O-])c3)cc12 [Example 180, Cc1c(sc2ccc(CNC(═O)c3cccc(c3)[N+]([O−])═O)cc12)-c4ccnc(N)n4] |  | 
12 | > 5 µM | < 5 µM | Cc1c(-c2ccnc(N)n2)sc2ccc(CNC(=O)c3ccc(Oc4ccccc4)cc3)cc12 [Example 284, Cc1c(sc2ccc(CNC(═O)c3ccc(Oc4ccccc4)cc3)cc12)-c5ccnc(N)n5] |  | 

Continued, molecule first:

Row | Compound | IC50 [1, 3] | IC50 [2, 4] | IC50 ([1]; ROCK1 IC50, recombinant GST-tagged human ROCK1, luciferase-based ATP consumption) | IC50 ([2]; ROCK2 IC50, recombinant GST-tagged human ROCK2, luciferase-based ATP consumption)
13 | Cc1c(-c2ccnc(N)n2)sc2ccc(CNC(=O)c3cc(F)ccc3[N+](=O)[O-])cc12 [Example 230, Cc1c(sc2ccc(CNC(═O)c3cc(F)ccc3[N+]([O−])═O)cc12)-c4ccnc(N)n4] | < 5 µM | < 5 µM |  | 
14 | Cc1c(-c2ccnc(N)c2)sc2ccc(Cl)cc12 [Example 7, 4-(5-Chloro-3-methylbenzo[b]thiophen-2-yl)pyridin-2-amine] | > 5 µM | > 5 µM |  | 
15 | Cc1ccc(SCC(=O)NCc2ccc3sc(-c4ccnc(N)n4)c(C)c3c2)cc1 [Example 223, Cc1ccc(SCC(═O)NCc2ccc3sc(c(C)c3c2)-c4ccnc(N)n4)cc1] | > 5 µM | < 5 µM |  | 
16 | COc1ccccc1C=CC(=O)NCc1ccc2sc(-c3ccnc(N)n3)c(C)c2c1 [Example 200, COc1ccccc1C═CC(═O)NCc2ccc3sc(c(C)c3c2)-c4ccnc(N)n4] | < 5 µM | < 5 µM |  | 
17 | Cc1c(-c2ccnc(N)n2)sc2ccc(CNC(=O)c3ccc([N+](=O)[O-])cc3Cl)cc12 [Example 266, Cc1c(sc2ccc(CNC(═O)c3ccc(cc3Cl)[N+]([O−])═O)cc12)-c4ccnc(N)n4] |  |  | > 5 µM | < 5 µM
18 | Cc1c(-c2ccnc(N)n2)sc2ccc(CNC(=O)c3ccc(F)cc3F)cc12 [Example 155, Cc1c(sc2ccc(CNC(═O)c3ccc(F)cc3F)cc12)-c4ccnc(N)n4] | > 5 µM | < 5 µM |  | 
19 | Cc1c(-c2ccnc(N)n2)sc2ccc(CNC(=O)Cc3ccc(O)c(F)c3)cc12 [Example 186, Cc1c(sc2ccc(CNC(═O)Cc3ccc(O)c(F)c3)cc12)-c4ccnc(N)n4] | < 5 µM | < 5 µM |  | 
20 | Cc1c(-c2ccnc(N)n2)sc2ccc(CNC(=O)c3ccccc3-c3ccccc3)cc12 [Example 261, Cc1c(sc2ccc(CNC(═O)c3ccccc3-c4ccccc4)cc12)-c5ccnc(N)n5] | > 5 µM | < 5 µM |  | 
21 | Cc1c(-c2cc(N)nc(N)n2)sc2ccc(Cl)cc12 [Example 9, 6-(5-Chloro-3-methylbenzo[b]thiophen-2-yl)pyrimidine-2,4-diamine] | > 5 µM | > 5 µM |  | 
22 | COc1cc(C(=O)NCc2ccc3sc(-c4ccnc(N)n4)c(C)c3c2)cc(Cl)n1 [Example 235, COc1cc(cc(Cl)n1)C(═O)NCc2ccc3sc(c(C)c3c2)-c4ccnc(N)n4] | < 5 µM | < 5 µM |  | 
23 | CC(=O)NCc1ccc2sc(-c3ccnc(N)n3)c(C)c2c1 [Example 95, CC(═O)NCc1ccc2sc(c(C)c2c1)-c3ccnc(N)n3] | > 5 µM | > 5 µM |  | 
24 | COc1ccc(OC)c(Cc2ccc3sc(-c4ccnc(N)n4)c(C)c3c2)c1 [Example 38, 4-(5-(2,5-Dimethoxybenzyl)-3-methylbenzo[b]thiophen-2-yl)pyrimidin-2-amine] | > 5 µM | > 5 µM |  | 
25 | Cc1c(-c2ccnc(N)n2)sc2ccc(Cc3cccc(C#N)c3)cc12 [Example 40, 3-((2-(2-Aminopyrimidin-4-yl)-3-methylbenzo[b]thiophen-5-yl)methyl)benzonitrile] | < 5 µM | < 5 µM |  | 
26 | Cc1c(-c2ccnc(N)n2)sc2ccc(CNC(=O)C=Cc3ccccc3C(F)(F)F)cc12 [Example 290, Cc1c(sc2ccc(CNC(═O)C═Cc3ccccc3C(F)(F)F)cc12)-c4ccnc(N)n4] | > 5 µM | > 5 µM |  | 
27 | Cc1c(-c2ccnc(N)n2)sc2ccc(CNC(=O)c3cc(F)cc(F)c3)cc12 [Example 156, Cc1c(sc2ccc(CNC(═O)c3cc(F)cc(F)c3)cc12)-c4ccnc(N)n4] | < 5 µM | < 5 µM |  | 
28 | Cc1c(-c2ccnc(N)n2)sc2ccc(CNC(=O)c3ccc4cccc(O)c4n3)cc12 [Example 240, Cc1c(sc2ccc(CNC(═O)c3ccc4cccc(O)c4n3)cc12)-c5ccnc(N)n5] | < 5 µM | < 5 µM |  | 
29 | Cc1c(-c2ccnc(N)n2)sc2ccc(CNC(=O)C(Cc3ccc(O)cc3)NC(=O)OC(C)(C)C)cc12 (centres unmarked) [Example 328, Cc1c(sc2ccc(CNC(═O)C(Cc3ccc(O)cc3)NC(═O)OC(C)(C)C)cc12)c4ccnc(N)n4] | < 5 µM | < 5 µM |  | 
30 | Cc1ccc(C(=O)CCC(=O)NCc2ccc3sc(-c4ccnc(N)n4)c(C)c3c2)cc1 [Example 250, Cc1ccc(cc1)C(═O)CCC(═O)NCc2ccc3sc(c(C)c3c2)-c4ccnc(N)n4] | > 5 µM | < 5 µM |  | 
31 | Cc1c(C(=O)NCc2ccc3sc(-c4ccnc(N)n4)c(C)c3c2)cccc1[N+](=O)[O-] [Example 218, Cc1c(cccc1[N+]([O−])═O)C(═O)NCc2ccc3sc(c(C)c3c2)-c4ccnc(N)n4] | > 5 µM | < 5 µM |  | 
32 | Cc1c(-c2ccnc(N)n2)sc2ccc(CNC(=O)C=Cc3ccccc3)cc12 [Example 128, Cc1c(sc2ccc(CNC(═O)C═Cc3ccccc3)cc12)-c4ccnc(N)n4] | < 5 µM | < 5 µM |  | 
33 | Cc1c(-c2ccnc(N)n2)sc2ccc(N)cc12 [Example 72, 4-(5-Amino-3-methylbenzo[b]thiophen-2-yl)pyrimidin-2-amine] | < 5 µM | < 5 µM |  | 
34 | Cc1c(-c2ccnc(N)n2)sc2ccc(CNC(=O)CC(C)C)cc12 [Example 101, CC(C)CC(═O)NCc1ccc2sc(c(C)c2c1)-c3ccnc(N)n3] | < 5 µM | < 5 µM |  | 
